The numbers were not newly measured in patent US20050256112A1, “Combination of atypical antipsychotics and 5HT-1B receptor antagonists” (Pfizer Inc, priority 2004, published 2005), which cites them from elsewhere.

For series [1] the following is noted: background statement.
For series [2] the following is noted: in some mammals; background statement.
The test system of series [3] is white blood cell counts. The conditions noted are these: background statement.

SMILES strings stand for the structures.

Regarding `Cc1cc2c(s1)Nc1ccccc1N=C2N1CCN(C)CC1` [Olanzapine, 2-methyl-4-(4-methyl-1-piperazinyl)-10H-thieno [2,3-b][1,5] benzodiazepine], in series [1] (in some cases), the weight gain entry is reported as “up to 1 pound per week”.
`OCCOCCN1CCN(C2=Nc3ccccc3Sc3ccccc32)CC1` [Quetiapine, 5-[2-(4-dibenzo[b,f][1,4]thiazepin-11-yl-1-piperazinyl)ethyoxy]ethanol]: the cataract formation result in series [2] was “cause cataract formation”.
As for `Cc1nc2n(c(=O)c1CCN1CCC(c3noc4cc(F)ccc34)CC1)CCCC2` [risperidone, 3-[2-[4-(6-fluoro-1,2-benzisoxazol-3-yl)piperidino]ethyl]-2-methyl-6,7,8,9-tetrahydro-4H-pyrido-[1,2-a]pyrimidin-4-one], the “effect on white blood cell count” value in series [3] is reported as “remains unaffected”. The “weight gain (in words)” value in series [1] is “minimal”.
